Earlier results, collected in patent publication US9440985B2, “Tricyclic derivatives of N,N′-substituted 3,7-diazabicyclo [3.3.1]nonanes and drugs based thereon” (priority 2011, dated 2016).

Columns and labels:
AMPA receptors [1] = conditions: high concentrations
AMPA receptors [2] = system: AMPA receptors
AMPA receptors [3] = conditions: adult rats; 0.3-3 mg/kg

concentration at which the clinical effect is manifested (AMPA receptors [1]) [mM]	NMDA-mediated signals (AMPA receptors [2])	synaptic signal (AMPA receptors [2]; several hippocampus sites)	SMILES	social memory (AMPA receptors [3])
0.1	no effect	enhances the synaptic signal	COc1ccc(C(=O)N2CCCC2=O)cc1 [aniracetam]	–
–	–	–	O=C(c1ccc2c(c1)OCCO2)N1CCCCC1 [CX546]	improves social memory
